# Results taken from ChEMBL document CHEMBL1201862, “PubChem BioAssay data set” (2004).
#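 Grown in 96-well plates, cells were treated for 48 hours with each compound at five concentrations. Insufficient inhibition: endpoint recorded as highest concentration tested. GI50 marks 50% less growth.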 The source made the active and inactive calls. Cut-off read from the data, not from the text of the source: active = GI50 up to about 1.1 µM and inactive = higher.
# Experiments:
# Assay in all cases: NCI tumour cell line growth inhibition, 48 h
# [1] = tested on: 786-0
# [2] = tested on: A498
# [3] = tested on: A549
# [4] = tested on: ACHN
# [5] = tested on: CAKI-1
# [6] = tested on: CCRF-CEM
# [7] = tested on: COLO 205
# [8] = tested on: DU-145
# [9] = tested on: EKVX
# [10] = tested on: HCC 2998
# [11] = tested on: HCT-116
# [12] = tested on: HCT-15
# [13] = tested on: HL-60
# [14] = tested on: HOP-62
# [15] = tested on: HOP-92
# [16] = tested on: HT-29
# [17] = tested on: Hs-578T
# [18] = tested on: IGROV-1
# [19] = tested on: K562
# [20] = tested on: KM12
# [21] = tested on: LOX IMVI
# [22] = tested on: M14
# [23] = tested on: MCF7
# [24] = tested on: MDA-MB-231
# [25] = tested on: MDA-MB-435
# [26] = tested on: MDA-N
# [27] = tested on: MOLT-4
# [28] = tested on: Malme-3M
# [29] = tested on: NCI-H226
# [30] = tested on: NCI-H23
# [31] = tested on: NCI-H460
# [32] = tested on: NCI-H522
# [33] = tested on: NCI/ADR-RES
# [34] = tested on: OVCAR-3
# [35] = tested on: OVCAR-4
# [36] = tested on: OVCAR-5
# [37] = tested on: OVCAR-8
# [38] = tested on: PC-3
# [39] = tested on: RPMI-8226
# [40] = tested on: RXF 393
# [41] = tested on: SF-268
# [42] = tested on: SF-295
# [43] = tested on: SF-539
# [44] = tested on: SK-MEL-28
# [45] = tested on: SK-MEL-2
# [46] = tested on: SK-MEL-5
# [47] = tested on: SK-OV-3
# [48] = tested on: SN12C
# [49] = tested on: SNB-19
# [50] = tested on: SW-620
# [51] = tested on: T47D
# [52] = tested on: TK-10
# [53] = tested on: U-251
# [54] = tested on: UACC-257
# [55] = tested on: UACC-62
# [56] = tested on: UO-31
# [57] = tested on: SNB-75
# [58] = tested on: SR
# [59] = tested on: BT-549
smiles,measurement,setting,value
CCOC(=O)c1nc(SC)sc1NC(=O)c1ccc(OC)cc1,GI50,[1],20.5 µM (inactive)
same,GI50,[2],15.8 µM (inactive)
same,GI50,[3],29.7 µM (inactive)
same,GI50,[4],47.8 µM (inactive)
same,GI50,[5],> 100 µM (inactive)
same,GI50,[6],> 100 µM (inactive)
same,GI50,[7],28.8 µM (inactive)
same,GI50,[8],> 100 µM (inactive)
same,GI50,[9],> 100 µM (inactive)
same,GI50,[10],43.6 µM (inactive)
same,GI50,[11],19.5 µM (inactive)
same,GI50,[12],> 100 µM
same,GI50,[13],> 100 µM (inactive)
same,GI50,[14],34.7 µM (inactive)
same,GI50,[15],> 100 µM (inactive)
same,GI50,[16],66.2 µM (inactive)
same,GI50,[17],> 100 µM (inactive)
same,GI50,[18],> 100 µM (inactive)
same,GI50,[19],> 100 µM (inactive)
same,GI50,[20],> 100 µM (inactive)
same,GI50,[21],> 100 µM (inactive)
same,GI50,[22],> 100 µM (inactive)
same,GI50,[23],46.5 µM (inactive)
same,GI50,[24],35.2 µM (inactive)
same,GI50,[25],> 100 µM (inactive)
same,GI50,[26],> 100 µM (inactive)
same,GI50,[27],> 100 µM (inactive)
same,GI50,[28],35.3 µM (inactive)
same,GI50,[29],28.1 µM (inactive)
same,GI50,[30],> 100 µM (inactive)
same,GI50,[31],35.6 µM (inactive)
same,GI50,[32],> 100 µM (inactive)
same,GI50,[33],> 100 µM (inactive)
same,GI50,[34],> 100 µM (inactive)
same,GI50,[35],29.2 µM (inactive)
same,GI50,[36],> 100 µM (inactive)
same,GI50,[37],58.7 µM (inactive)
same,GI50,[38],> 100 µM (inactive)
same,GI50,[39],> 100 µM (inactive)
same,GI50,[40],33.4 µM (inactive)
same,GI50,[41],> 100 µM (inactive)
same,GI50,[42],> 100 µM (inactive)
same,GI50,[43],16.4 µM (inactive)
same,GI50,[44],75 µM (inactive)
same,GI50,[45],> 100 µM (inactive)
same,GI50,[46],> 100 µM (inactive)
same,GI50,[47],63.1 µM (inactive)
same,GI50,[48],37.9 µM (inactive)
same,GI50,[49],75.7 µM (inactive)
same,GI50,[50],49.1 µM (inactive)
same,GI50,[51],98.2 µM (inactive)
same,GI50,[52],21.1 µM (inactive)
same,GI50,[53],23.9 µM (inactive)
same,GI50,[54],> 100 µM (inactive)
same,GI50,[55],> 100 µM (inactive)
same,GI50,[56],> 100 µM (inactive)
COc1cc([C@@H]2c3cc(O)c(OC)cc3C=C(C(N)=O)[C@H]2C(N)=O)ccc1O,GI50,[1],> 100 µM (inactive)
same,GI50,[2],> 100 µM (inactive)
same,GI50,[3],> 100 µM (inactive)
same,GI50,[4],> 100 µM (inactive)
same,GI50,[5],> 100 µM (inactive)
same,GI50,[6],> 100 µM (inactive)
same,GI50,[7],> 100 µM (inactive)
same,GI50,[8],> 100 µM (inactive)
same,GI50,[9],> 100 µM (inactive)
same,GI50,[10],> 100 µM (inactive)
same,GI50,[11],> 100 µM (inactive)
same,GI50,[12],> 100 µM
same,GI50,[13],> 100 µM (inactive)
same,GI50,[14],> 100 µM (inactive)
same,GI50,[15],> 100 µM (inactive)
same,GI50,[16],> 100 µM (inactive)
same,GI50,[17],> 100 µM (inactive)
same,GI50,[18],> 100 µM (inactive)
same,GI50,[19],> 100 µM (inactive)
same,GI50,[20],> 100 µM (inactive)
same,GI50,[21],> 100 µM (inactive)
same,GI50,[22],> 100 µM (inactive)
same,GI50,[23],> 100 µM (inactive)
same,GI50,[24],> 100 µM (inactive)
same,GI50,[25],> 100 µM (inactive)
same,GI50,[26],> 100 µM (inactive)
same,GI50,[27],> 100 µM (inactive)
same,GI50,[28],> 100 µM (inactive)
same,GI50,[29],> 100 µM (inactive)
same,GI50,[30],> 100 µM (inactive)
same,GI50,[31],> 100 µM (inactive)
same,GI50,[32],> 100 µM (inactive)
same,GI50,[33],> 100 µM (inactive)
same,GI50,[34],> 100 µM (inactive)
same,GI50,[36],> 100 µM (inactive)
same,GI50,[37],> 100 µM (inactive)
same,GI50,[38],> 100 µM (inactive)
same,GI50,[39],> 100 µM (inactive)
same,GI50,[40],> 100 µM (inactive)
same,GI50,[41],> 100 µM (inactive)
same,GI50,[42],> 100 µM (inactive)
same,GI50,[43],> 100 µM (inactive)
same,GI50,[44],> 100 µM (inactive)
same,GI50,[46],> 100 µM (inactive)
same,GI50,[48],> 100 µM (inactive)
same,GI50,[49],> 100 µM (inactive)
same,GI50,[57],> 100 µM (inactive)
same,GI50,[58],> 100 µM (inactive)
same,GI50,[50],> 100 µM (inactive)
same,GI50,[51],> 100 µM (inactive)
same,GI50,[53],> 100 µM (inactive)
same,GI50,[54],> 100 µM (inactive)
same,GI50,[56],> 100 µM (inactive)
COc1ccc2c(c1)C(=O)/C(=C/c1ccccc1)C2,GI50,[2],44 µM (inactive)
same,GI50,[59],27.2 µM (inactive)
same,GI50,[5],20.2 µM (inactive)
same,GI50,[6],11.3 µM (inactive)
same,GI50,[8],> 100 µM (inactive)
same,GI50,[12],69 µM
same,GI50,[13],> 10 µM (inactive)
same,GI50,[14],29.6 µM (inactive)
same,GI50,[15],59.7 µM (inactive)
same,GI50,[16],31.6 µM (inactive)
same,GI50,[17],> 100 µM (inactive)
same,GI50,[18],> 100 µM (inactive)
same,GI50,[19],29 µM (inactive)
same,GI50,[20],> 100 µM (inactive)
same,GI50,[22],27 µM (inactive)
same,GI50,[23],7.36 µM (inactive)
same,GI50,[25],63.2 µM (inactive)
same,GI50,[26],39 µM (inactive)
same,GI50,[27],16.3 µM (inactive)
same,GI50,[28],> 100 µM (inactive)
same,GI50,[29],25 µM (inactive)
same,GI50,[30],42.4 µM (inactive)
same,GI50,[31],34 µM (inactive)
same,GI50,[32],45.2 µM (inactive)
same,GI50,[33],24.7 µM (inactive)
same,GI50,[34],39.2 µM (inactive)
same,GI50,[35],55.7 µM (inactive)
same,GI50,[36],52.5 µM (inactive)
same,GI50,[37],> 100 µM (inactive)
same,GI50,[38],68.9 µM (inactive)
same,GI50,[39],45.7 µM (inactive)
same,GI50,[40],43.9 µM (inactive)
same,GI50,[42],> 100 µM (inactive)
same,GI50,[44],> 100 µM (inactive)
same,GI50,[45],74.1 µM (inactive)
same,GI50,[46],29.4 µM (inactive)
same,GI50,[47],> 100 µM (inactive)
same,GI50,[48],> 100 µM (inactive)
same,GI50,[49],95.1 µM (inactive)
same,GI50,[57],46.5 µM (inactive)
same,GI50,[58],76.7 µM (inactive)
same,GI50,[53],> 100 µM (inactive)
same,GI50,[55],52.6 µM (inactive)
same,GI50,[56],49.7 µM (inactive)
CC(=O)c1c(O)nnc(-c2ccc(Cl)cc2)c1-c1ccc(Cl)cc1,GI50,[1],83.6 µM (inactive)
same,GI50,[2],26.7 µM (inactive)
same,GI50,[3],29.9 µM (inactive)
same,GI50,[4],22 µM (inactive)
same,GI50,[5],31.8 µM (inactive)
same,GI50,[6],45.7 µM (inactive)
same,GI50,[7],29.2 µM (inactive)
same,GI50,[8],54.8 µM (inactive)
same,GI50,[9],53.3 µM (inactive)
same,GI50,[10],61.8 µM (inactive)
same,GI50,[11],58.2 µM (inactive)
same,GI50,[12],24.2 µM
same,GI50,[13],25 µM (inactive)
same,GI50,[15],52.7 µM (inactive)
same,GI50,[16],40.5 µM (inactive)
same,GI50,[17],53.1 µM (inactive)
same,GI50,[18],26.2 µM (inactive)
same,GI50,[19],30.4 µM (inactive)
same,GI50,[20],35.2 µM (inactive)
same,GI50,[21],21.7 µM (inactive)
same,GI50,[22],65.6 µM (inactive)
same,GI50,[23],32.1 µM (inactive)
same,GI50,[24],21.2 µM (inactive)
same,GI50,[25],29.9 µM (inactive)
same,GI50,[26],33.7 µM (inactive)
same,GI50,[27],48.5 µM (inactive)
same,GI50,[28],28.5 µM (inactive)
same,GI50,[29],31.3 µM (inactive)
same,GI50,[30],69.3 µM (inactive)
same,GI50,[31],33 µM (inactive)
same,GI50,[33],30.1 µM (inactive)
same,GI50,[34],25.1 µM (inactive)
same,GI50,[35],21.1 µM (inactive)
same,GI50,[36],> 100 µM (inactive)
same,GI50,[37],31.5 µM (inactive)
same,GI50,[38],37.4 µM (inactive)
same,GI50,[39],23.2 µM (inactive)
same,GI50,[40],38.9 µM (inactive)
same,GI50,[41],> 100 µM (inactive)
same,GI50,[42],46.1 µM (inactive)
same,GI50,[43],22.7 µM (inactive)
same,GI50,[44],41.9 µM (inactive)
same,GI50,[45],25.1 µM (inactive)
same,GI50,[46],29 µM (inactive)
same,GI50,[47],40.8 µM (inactive)
same,GI50,[48],22.3 µM (inactive)
same,GI50,[49],> 100 µM (inactive)
same,GI50,[58],27.9 µM (inactive)
same,GI50,[50],62.5 µM (inactive)
same,GI50,[51],31.5 µM (inactive)
same,GI50,[52],62.4 µM (inactive)
same,GI50,[53],51.9 µM (inactive)
same,GI50,[54],39 µM (inactive)
same,GI50,[55],12.4 µM (inactive)
